From patent US12528825B2, “Compounds and uses thereof” (Foghorn Therapeutics Inc., priority 2020, dated 2026)
“Also recorded” adds a separate entry of the source.

Columns and labels:
[1] = test system: SYO-1 human biphasic synovial sarcoma tumor cells; assay: SYO-1 synovial sarcoma xenograft tumor growth in NOD SCID mice; assay type: in vivo; settings: 1 mg/kg, i.p., daily, 3 weeks, SYO-1 xenograft
Method: (§1) Method: NOD SCID mice (Beijing Anikeeper Biotech, Beijing) were inoculated subcutaneously on the right flank with the single cell suspension of SYO-1 human biphasic synovial sarcoma tumor cells (5×106) in 100 μL Dulbecco's Modified Eagle Medium (DMEM) with 10% fetal bovine serum (FBS). The mice were randomized into either control group [10% dimethyl sulfoxide (DMSO), 40% polyethylene glycol (PEG400) and 50% water], or treatment group D1 when the mean tumor size reached about 117 mm^3. Mice were dosed daily through intraperitoneal (i.p.) route over the course of 3 weeks. All dose volumes were adjusted by body weights in terms of mg/kg.

[2] = Tolerability (% body weight change) in the SYO-1 xenograft study; assay type: in vivo; settings: 1 mg/kg, i.p., daily, 3 weeks; NOD SCID mice
Method: as §1

BRD9 = target: T1, BRD9 (Homo sapiens, UniProt Q9H8M2); assay: BRD9 western blot in synovial sarcoma tumors in vivo; set-up: species or system mice; settings: 1 mg/kg, i.p., 4 weeks; tumors collected 8, 72 and 168 hours post last dose; effect up to 168 hours after dose
T1 construct: Tumors were lysed with 1× RIPA lysis buffer; from tissue; host or cells: synovial sarcoma tumours collected from treated mice
T1 sequence (Q9H8M2 1-597): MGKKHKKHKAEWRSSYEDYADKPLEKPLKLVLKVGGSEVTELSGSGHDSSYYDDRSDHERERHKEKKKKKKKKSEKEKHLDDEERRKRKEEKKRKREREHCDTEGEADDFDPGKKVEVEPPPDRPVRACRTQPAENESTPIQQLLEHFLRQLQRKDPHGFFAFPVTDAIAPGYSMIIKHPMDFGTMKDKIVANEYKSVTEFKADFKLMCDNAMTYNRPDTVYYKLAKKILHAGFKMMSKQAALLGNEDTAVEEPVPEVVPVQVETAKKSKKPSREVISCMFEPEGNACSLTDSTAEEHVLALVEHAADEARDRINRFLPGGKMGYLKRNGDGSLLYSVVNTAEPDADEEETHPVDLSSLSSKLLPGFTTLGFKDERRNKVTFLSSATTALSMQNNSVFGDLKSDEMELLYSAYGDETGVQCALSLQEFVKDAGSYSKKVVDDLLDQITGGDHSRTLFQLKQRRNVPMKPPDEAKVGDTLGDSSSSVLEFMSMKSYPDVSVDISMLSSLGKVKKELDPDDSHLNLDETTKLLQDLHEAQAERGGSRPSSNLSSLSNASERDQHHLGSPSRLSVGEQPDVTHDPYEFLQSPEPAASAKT
Method: Method: Mice were treated with D1, 1 mg/kg, i.p. for 4 weeks. Mice were then euthanized, and tumors were collected at 8 hours, 72 hours, and 168 hours post last dose. Tumors were lysed with 1× RIPA lysis buffer (Boston BioProducts, BP-115D) with protease and phosphatase protein inhibitor (Roche Applied Science #04906837001 & 05892791001). Equal amounts of lysate (30 μg) were loaded in 4-12% Bis-Tris Midi Protein Gels in 1×MOPS buffer; samples ran at 120 V for 120 minutes. Protein was transferred to membrane with TransBlot at 250 mA for 150 minutes, and then membranes were blocked with Odyssey blocking buffer for 1 hour at room temperature. Membranes were hybridized overnight in cold room with primary antibodies. Images acquired using Li-COR imaging system (Li-COR Biotechnology, Lincoln, Nebraska).

[3] = test system: synovial sarcoma cell lines (SYO1, Yamato, HS-SY-II, and ASKA); assay: Growth of synovial sarcoma cell lines (IncuCyte confluency, crystal violet, colony imaging); assay type: cell-based; settings: 1 μM or indicated concentrations, FIGS. 4-6
Method: (§2) Cells were treated with DMSO or the BRD9 degrader, Compound 1, at indicated concentrations, and proliferation was monitored from day 7 to day 14 by measuring confluency over time using an IncuCyte live cell analysis system (FIG. 4). Growth medium and compounds were refreshed every 3-4 days.
(§3) Cells were seeded into 12-well plates and treated with DMSO, 1 μM BRD9 inhibitor, Compound 2 (also known as BI-7273, see Martin et al, J Med Chem. 59(10):4462-4475 (2016); see structure of compound 2 below), or 1 μM BRD9 degrader, Compound 1.
(§4) The number of cells was optimized for each cell line. Growth medium and compounds were refreshed every 3-5 days. SYO1, Yamato, A549, 293T and HS-SY-II cells were fixed and stained at day 11. ASKA cells were fixed and stained at day 23. Staining was done by incubation with crystal violet solution (0.5 g Crystal Violet, 27 ml 37% Formaldehyde, 100 mL 10×PBS, 10 mL Methanol, 863 dH20 to 1 L) for 30 min followed by 3× washes with water and drying the plates for at least 24 h at room temperature. Subsequently plates were scanned on an Odyssey CLx Imaging system (FIG. 5).
(§5) Cells were seeded into 96-well ultra-low cluster plate (Costar, #7007) in 200 μL complete media and treated at day 2 with DMSO, Staurosporin, or BRD9 degrader, Compound 1, at indicated doses (FIG. 2C). Media and compounds were changed every 5 d and cell colonies were imaged at day 14.

[4] = test system: non-synovial control cancer cell lines (293T, A549, G401); assay: Growth of non-synovial control cancer cell lines (crystal violet, colony imaging); assay type: cell-based; settings: 1 μM or indicated doses, FIGS. 4-6
Method: as §2, §3, §4, §5

[5] = test system: synovial sarcoma cell lines (SYO1, HS-SY-II, and ASKA); assay: Crystal violet growth assay, synovial sarcoma cell lines, day 14; assay type: cell-based; settings: for inhibition of growth of synovial sarcoma cell lines: SYO1, HS-SY-II, ASKA, treated daily, indicated concentrations, day 14, FIG. 7
Method: (§6) Procedure: Cells were seeded into 6-well or 12-well plates and were treated daily with a BRD9 degrader (Compound 1), a bromo-domain BRD9 binder (Compound 2), E3 ligase binder (lenalidomide), DMSO, or staurosporin (positive control for cell killing), at indicated concentrations. The number of cells was optimized for each cell line. Growth media was refreshed every 5 days. By day 14, medium was removed, cells were washed with PBS, and stained using 500 μL of 0.005% (w/v) crystal violet solution in 25% (v/v) methanol for at least 1 hour at room temperature. Subsequently plates were scanned on an Odyssey CLx Imaging system.

[6] = test system: non-synovial control cancer cell lines (RD, HCT116, and Calu6); assay: Crystal violet growth assay, non-synovial control cancer cell lines, day 14; assay type: cell-based; settings: treated daily, indicated concentrations, FIG. 8
Method: as §6

SYO1 cells [7] = assay: Cell cycle analysis (Click-iT Plus EdU flow cytometry); assay type: cell-based, human; settings: 200 nM or 1 μM, 8 or 13 days, compared to DMSO and lenalidomide
Method: (§7) Procedure: SYO1 cells were treated for 8 or 13 days with DMSO, a BRD9 degrader (Compound 1) at 200 nM or 1 μM, or an E3 ligase binder (lenalidomide) at 200 nM. Compounds were refreshed every 5 days. Cell cycle analysis was performed using the Click-iT™ Plus EdU Flow Cytometry Assay (Invitrogen). The apoptosis assay was performed using the Annexin V-FITC Apoptosis Detection Kit (Sigma A9210). Assays were performed according to the manufacturer's protocol.

SYO1 cells [8] = assay: Apoptosis assay (Annexin V-FITC); assay type: cell-based, human; settings: 200 nM or 1 μM, 8 days, compared to DMSO controls
Method: as §7

Row | Compound | tumor growth [1] | tolerability based on % body weight change [2] | BRD9 level in tumor (western blot) (BRD9) | inhibition of growth of synovial sarcoma cell lines [3] | inhibition of growth of non-synovial control cancer cell lines [4] | inhibition of growth of synovial sarcoma cell lines [5] | inhibition of growth of non-synovial control cancer cell lines [6] | growth inhibition compared with the other test compounds ([5]; all synovial cell lines) | numbers of cells in the S-phase of the cell cycle (SYO1 cells [7]) | numbers of early- and late-apoptotic cells (SYO1 cells [8])
1 | COc1cc(-c2cn(C)c(=O)c3cc(C(=O)NC4CCN(C5CCN(c6ccc7c(c6)C(=O)N(C6CCC(=O)NC6=O)C7)CC5)CC4(F)F)sc23)cc(OC)c1CN(C)C (centres unmarked) [Compound D1, 7-[4-[(dimethylamino)methyl]-3,5-dimethoxyphenyl]-N-[1′-[2-(2,6-dioxopiperidin-3-yl)-3-oxo-1H-isoindol-5-yl]-3,3-difluoro-[1,4′-bipiperidin]-4-yl]-5-methyl-4-oxothieno[3,2-c]pyridine-2-carboxamide] | tumor growth inhibition | well tolerated | complete degradation; also recorded: BRD9 inhibition |  |  |  |  |  |  | 
2 | COc1cc(-c2cn(C)c(=O)c3cnccc23)cc(OC)c1CN(C)C [Compound 2] |  |  |  | inhibition of the growth of the cells | does not result in inhibition of the growth | inhibition of the growth of the cells | did not result in inhibition of the growth |  |  | 
3 | COc1cc(-c2cn(C)c(=O)c3cnccc23)cc(OC)c1CN(C)CC(=O)NCCOCCOCCNc1cccc2c1C(=O)N(C1CCC(=O)NC1=O)C2=O (centres unmarked) [Compound 1] |  |  |  | inhibition of the growth of the cells | does not result in inhibition of the growth | inhibition of the growth of the cells | did not result in inhibition of the growth | most significant growth inhibition | reduced numbers of cells in the S-phase | increased numbers of early- and late-apoptotic cells
